Key:
[1] = test system: IL-6 secreted by human pulmonary artery endothelial cells (HPAEC); experiment: In vitro IL-6 assay: TNF-alpha-stimulated IL-6 secretion by HPAEC, ELISA; format: cell-based; settings: Endothelial cell, 10 microM compound, 20 hrs preincubation, then 2 ng/ml TNF-alpha for 4 hrs
Procedure: (§1) In Vitro IL-6 and IL-8 Assays
(§2) Compounds at dosing concentrations (with 0.2% DMSO vehicle) were incubated in EGM2MV cell media at 37° C. for overnight, added to 96-well plates seeded with confluent human pulmonary artery endothelial cells (HPAEC) for 20 hrs at 37° C., and then replaced with fresh dosing media containing 2 ng/ml tumor necrosis factor alpha for additional 4 hrs at 37° C. Afterwards, media was removed and used in ELISA assay to quantify the amount of IL-6 and IL-8 secreted by the cells using R&D Systems Duoset ELISA kits.

[2] = test system: Balb/CJ mice, ovalbumin-sensitized and challenged; experiment: Mouse model of asthma: methacholine-induced airway reactivity (Penh) in ovalbumin-sensitized mice; format: in vivo; settings: po, 768 h, 50 mg/kg p.o., days 26-32, % inhibition of the PenH vs McH dose AUC compared with vehicle control, day 32, read-out: Reduction of Penh AUC at 50 mg/kg p.o.
Procedure: Protocol for Testing Compounds in a Mouse Model of Asthma
Male 5-6 week old Balb/CJ mice were obtained from Jackson Laboratories (Bar Harbor, Me.). All experimental animals were used in accordance to Institutional Animal Care and Use Committee of AtheroGenics, Inc. Mice were sensitized by administering an intraperitoneal injection of 20 μg of ovalbumin (Calbiochem, La Jolla, Calif.) adsorbed in 2 mg of alum (Imject Alum; Pierce, Rockford, Ill.) on day 0 and 14. A group of mice received saline and served as negative control animals. The mice were challenged by aerosol exposure to ovalbumin (1% [wt/vol]) for 25 minutes on 3 consecutive days (days 28, 29, and 30) in a plexiglas exposure chamber coupled to an Aeroneb nebulizer (Buxco Electronics, Wilmington, N.C.). Experimental compounds were dissolved in Glycofurol/PEG 300/Tween (35%/55%/10%) (Sigma-aldrich; Milwaukee, Wis.). Animals were dosed orally with either test compound or vehicle (6 ml/kg dosing volume) on days 26-32 of study. Compound or vehicle was administered 2 hour before the aerosol challenge on days 28, 29, and 30 and 1 hour before airway reactivity measurement on day 32.
Methacholine-induced airway reactivity was assessed on day 32. Methacholine was administered in increasing concentrations ([…], 1.5, 3, 6, 12, 25, and 50 mg/ml) to unrestrained mice. Increases in airway resistance to Methacholine were determined as enhanced pause, (Penh) values, during and after the exposure (6-minute total analysis time). Mice were then humanely euthanized with an overdose of ketamine/xylazine and plasma samples collected for determination of drug levels. The data is presented as the % inhibition of the PenH vs McH dose AUC compared with the vehicle control.
Data analysis was conducting using the software package, JMP (SAS Institute Inc; Cary, N.C.). The Dunnett's multiple comparison test was used to compare treatment group means to the vehicle control group. P values of less than 0.05 were considered statistically significant. The data (Table 1) are presented as the % inhibition of the PenH vs McH dose AUC compared with the vehicle control.

[3] = test system: IL-8 secreted by human pulmonary artery endothelial cells (HPAEC); experiment: In vitro IL-8 assay: TNF-alpha-stimulated IL-8 secretion by HPAEC, ELISA; format: cell-based; settings: Endothelial cell, 10 microM compound, 20 hrs preincubation, then 2 ng/ml TNF-alpha for 4 hrs
Procedure: as §1, §2

| SMILES | melting point [°C] | inhibition at 10 µM [1] [%] | inhibition in vivo at 50 mg/kg [2] [%] | inhibition at 10 µM [3] [%] |
| --- | --- | --- | --- | --- |
| Cc1cc2c(cc1O)C(C)(C)CC1(CC(C)(C)c3cc(OCCCCO)c(C)cc3O1)O2 (racemic) | 235 to 236 |  |  |  |
| C=CCOc1cc2c(cc1C)OC1(CC(C)(C)c3cc(O)c(C)cc3O1)CC2(C)C (racemic) | 143 to 144 |  |  |  |
| Cc1cc2c(cc1O)C(C)(C)CC1(CC(C)(C)c3cc(OCCO)c(C)cc3O1)O2 (racemic) [Example 1, (±)-6′-Hydroxy-6-(2-hydroxyethoxy)-4,4,4′,4′,7,7′-hexamethyl-2,2′-spirobichroman] | 186 to 188 | 20 | < 20 | 0 |
| Cc1cc(C)n(CCOc2cc3c(cc2C)OC2(CC(C)(C)c4cc(O)c(C)cc4O2)CC3(C)C)n1 (racemic) [Example 2, (±)-6′-Hydroxy-6-[2-(3,5-dimethyl-1H-pyrazol-1-yl)ethoxy]-4,4,4′,4′,7,7′-hexamethyl-2,2′-spirobichroman] |  | 9 | < 20 | 12 |
| Cc1cc2c(cc1O)C(C)(C)CC1(CC(C)(C)c3cc(OCCCO)c(C)cc3O1)O2 (racemic) [Example 3, (±)-6′-Hydroxy-6-(3-hydroxypropoxy)-4,4,4′,4′,7,7′-hexamethyl-2,2′-spirobichroman] | 175 to 177 | 53 | 20 to 40 | 13 |
| Cc1cc2c(cc1O)C(C)(C)CC1(CC(C)(C)c3cc(OCCCn4cccn4)c(C)cc3O1)O2 (racemic) [Example 4, (±)-6′-Hydroxy-6-[3-(1H-pyrazol-1-yl)propoxy]-4,4,4′,4′,7,7′-hexamethyl-2,2′-spirobichroman] |  | 44 | < 20 | 0 |
| Cc1cc2c(cc1O)C(C)(C)CC1(CC(C)(C)c3cc(OC[C@@H](O)CO)c(C)cc3O1)O2 (mixture of isomers) [Example 5, (±)-6′-Hydroxy-6-[2(S),3-dihydroxypropoxy]-4,4,4′,4′,7,7′-hexamethyl-2,2′-spirobichroman] | 218 to 220 | 3 | 20 to 40 | 11 |
| Cc1cc2c(cc1O)C(C)(C)CC1(CC(C)(C)c3cc(OCCCn4ccnc4)c(C)cc3O1)O2 (racemic) [Example 6, (±)-6′-Hydroxy-6-[3-(1H-imidazol-1-yl)propoxy]-4,4,4′,4′,7,7′-hexamethyl-2,2′-spirobichroman] | 209 to 211 | 24 |  | 5 |
| Cc1cc2c(cc1O)C(C)(C)CC1(CC(C)(C)c3cc(OC(C)(C)C(=O)O)c(C)cc3O1)O2 (racemic) [Example 8, (±)-(6′-Hydroxy-4,4,4′,4′,7,7′-hexamethyl-2,2′-spirobichroman-6-yloxy)-dimethylacetic acid] |  | 42 | > 40 | 25 |
| Cc1cc2c(cc1O)C(C)(C)C[C@]1(CC(C)(C)c3cc(OC(C)(C)C(=O)O)c(C)cc3O1)O2 (racemic) [Example 9, (±)-(R)-(6′-Hydroxy-4,4,4′,4′,7,7′-hexamethyl-2,2′-spirobichroman-6-yloxy)-dimethylacetic acid] |  |  | > 40 |  |
| Cc1cc2c(cc1O)C(C)(C)CC1(CC(C)(C)c3cc(OC(C)(C)CO)c(C)cc3O1)O2 (racemic) [Example 11, (±)-6-(2-Hydroxy-1,1-dimethyl-ethoxy)-6′-hydroxy-4,4,4′,4′,7,7′-hexamethyl-2,2′-spirobichroman] | 188 to 189 |  | < 20 |  |
| Cc1cc2c(cc1O)C(C)(C)CC1(CC(C)(C)c3cc(OCC(N)=O)c(C)cc3O1)O2 (racemic) [Example 14, (±)-(6′-Hydroxy-4,4,4′,4′,7,7′-hexamethyl-2,2′-spirobichroman-6-yloxy)-acetamide] | 220 to 221 |  | < 20 |  |
| Cc1cc2c(cc1O)C(C)(C)CC1(CC(C)(C)c3cc(OCCCn4nc(CO)cc4C)c(C)cc3O1)O2 (racemic) [Example 17, (±)-6′-Hydroxy-6-[3-(3-hydroxymethyl-5-methyl-1H-pyrazol-1-yl)propoxy]-4,4,4′,4′,7,7′-hexamethyl-2,2′-spirobichroman] | 217 to 219 |  | 20 to 40 |  |
| Cc1cc(CO)n(CCCOc2cc3c(cc2C)OC2(CC(C)(C)c4cc(O)c(C)cc4O2)CC3(C)C)n1 (racemic) [Example 18, (±)-6′-Hydroxy-6-[3-(5-hydroxymethyl-3-methyl-1H-pyrazol-1-yl)propoxy]-4,4,4′,4′,7,7′-hexamethyl-2,2′-spirobichroman] | 208 to 210 | 41 |  | 5 |
| Cc1cc2c(cc1O)C(C)(C)CC1(CC(C)(C)c3cc(OCC(C)(C)O)c(C)cc3O1)O2 (racemic) [Example 19, (±)-6′-Hydroxy-6-(2-hydroxy-2-methylpropoxy)-4,4,4′,4′,7,7′-hexamethyl-2,2′-spirobichroman] |  |  | < 20 |  |
| COc1cc2c(cc1C)OC1(CC2(C)C)CC(C)(C)c2cc(OCC(=O)O)c(C)cc2O1 (racemic) [Example 20, (±)-(6′-Methoxy-4,4,4′,4′,7,7′-hexamethyl-2,2′-spirobichroman-6-yloxy)-acetic acid] | 195 to 197 |  | < 20 |  |
| C=CCc1c(O)c(C)cc2c1C(C)(C)CC1(CC(C)(C)c3cc(O)c(C)cc3O1)O2 (racemic) [Example 22, (±)-6,6′-Dihydroxy-5-allyl-4,4,4′,4′,7,7′-hexamethyl-2,2′-spirobichroman] | 102 to 104 |  | < 20 |  |
| C=CCc1c(O)c(C)cc2c1C(C)(C)CC1(CC(C)(C)c3c(cc(C)c(O)c3CC=C)O1)O2 (racemic) [Example 23, (±)-6,6′-Dihydroxy-5,5′-diallyl-4,4,4′,4′,7,7′-hexamethyl-2,2′-spirobichroman] | 95 to 97 |  | < 20 |  |
| Cc1cc2c(cc1O)C(C)(C)CC1(CC(C)(C)c3cc(O)c(C)cc3O1)O2 (racemic) [Example 24, (±)-6,6′-Dihydroxy-4,4,4′,4′,7,7′-hexamethyl-2,2′-spirobichroman] |  | 65 | 20 to 40 | 51 |
| Cc1cc2c(cc1O)C(C)(C)CC1(CC(C)(C)c3cc(OCC(=O)OCc4ccccc4)c(C)cc3O1)O2 (racemic) [Example 25, (±)-(6′-Hydroxy-4,4,4′,4′,7,7′-hexamethyl-2,2′-spirobichroman-6-yloxy)-acetic acid Benzyl Ester] | 60 to 65 |  |  |  |
| Cc1cc2c(cc1O)C(C)(C)CC1(CC(C)(C)c3cc(OCC(=O)O[C@@H]4C[C@H](C)CC[C@H]4C(C)(C)c4ccccc4)c(C)cc3O1)O2 (mixture of isomers) [Example 26, (±)-(6′-Hydroxy-4,4,4′,4′,7,7′-hexamethyl-2,2′-spirobichroman-6-yloxy)-acetic acid 5(R)-Methyl-2(S)-(1-methyl-1-phenylethyl)-1(R)-cyclohexyl Ester] | 88 to 93 |  |  |  |
| Cc1cc2c(cc1O)C(C)(C)CC1(CC(C)(C)c3cc(O)c(C)cc3O1)O2 (single isomer, unassigned) [Example 28] |  |  | 20 to 40 |  |
| Cc1cc2c(cc1O)C(C)(C)CC1(CC(C)(C)c3cc(OC(C)(C)C(=O)O)c(C)cc3O1)O2 (stereo in doubt) [Example 10, (−)-(S)-(6′-Hydroxy-4,4,4′,4′,7,7′-hexamethyl-2,2′-spirobichroman-6-yloxy)-dimethylacetic acid] |  |  | < 20 |  |
| C=CCOc1cc2c(cc1C)OC1(CC2(C)C)CC(C)(C)c2cc(OCC=C)c(C)cc2O1 [Example 16, (±)-6,6′-Bisallyloxy-4,4,4′,4′,7,7′-hexamethyl-2,2′-spirobichroman] | 98 to 100 |  |  |  |
| Cc1cc2c(cc1O)C(C)(C)CC1(CC(C)(C)c3cc(O)c(C)cc3O1)O2 [Example 27, (−)-(S)-6,6′-dihydroxy-4,4,4′,4′,7,7′-hexamethyl-2,2′-spirobichroman] | 165 to 166 |  | > 40 |  |

Reference: US20080280974A1, “Spiro compounds for treatment of inflammatory disorders” (priority 2007, published 2008)
